{
  "source": "ChEMBL document CHEMBL5104093",
  "about": "“A comprehensive review on β-lapachone: Mechanisms, structural modifications, and therapeutic potentials” (Eur J Med Chem, 2021)",
  "note": "pIC50: −log10 of the molar value.",
  "data": [
    {"system": "K562", "assay": "Cytotoxicity against human K562 cells assessed as reduction in cell viability incubated for 72 hrs by MTT assay", "format": "functional, cell-based", "conditions": "K562, 72 h", "values": [
      {"smiles": "COc1ccc(-c2cn(C3C4=C(OC3(C)C)c3ccccc3C(=O)C4=O)nn2)cc1", "note": "(configuration not stated)", "pIC50": 6.03},
      {"smiles": "CC1(C)OC2=C(C(=O)C(=O)c3ccccc32)C1n1cc(-c2ccc(F)cc2)nn1", "note": "(configuration not stated)", "pIC50": 5.88},
      {"smiles": "O=C1C(=O)c2ccccc2C2=C1CC(CI)O2", "note": "(configuration not stated)", "pIC50": 5.86},
      {"smiles": "CC1(C)OC2=C(C(=O)C(=O)c3ccccc32)C1n1cc(-c2ccc([N+](=O)[O-])cc2)nn1", "note": "(configuration not stated)", "pIC50": 6.13}
    ]},
    {"system": "OVCAR-8", "assay": "Cytotoxicity against human OVCAR-8 cells assessed as reduction in cell viability by MTT assay", "format": "functional, cell-based", "conditions": "not given", "values": [
      {"smiles": "CC1(C)O[C@@H]2O[C@@H](COC3C4=C(OC3(C)C)c3ccccc3C(=O)C4=O)[C@H]3OC(C)(C)O[C@H]3[C@@H]2O1", "note": "(some centres not stated)", "pIC50": 6.80},
      {"smiles": "CO[C@@H]1O[C@H](COC2C3=C(OC2(C)C)c2ccccc2C(=O)C3=O)[C@H]2OC(C)(C)O[C@@H]12", "note": "(some centres not stated)", "pIC50": 6.80},
      {"smiles": "CC1(C)O[C@H]2O[C@H](COC3C4=C(OC3(C)C)c3ccccc3C(=O)C4=O)[C@@H](OCc3ccccc3)[C@H]2O1", "note": "(some centres not stated)", "pIC50": 6.80},
      {"smiles": "Cc1ccc(-c2cc(NC3C4=C(OC3(C)C)c3ccccc3C(=O)C4=O)n(-c3ccccc3)n2)cc1", "note": "(configuration not stated)", "pIC50": 6.00}
    ]},
    {"system": "Trypanosoma cruzi", "assay": "Antitrypanosomal activity against bloodstream form of Trypanosoma cruzi trypomastigotes infected in Swiss mouse assessed as reduction in viable parasite in blood incubated for 24 hrs by Neubauer counting chamber method", "format": "functional, organism-based", "conditions": "not given", "values": [
      {"smiles": "CC1(C)CCc2c(c3ccccc3c3nc(-c4ccccc4Cl)[nH]c23)O1", "pIC50": 4.43},
      {"smiles": "CC1(C)CCc2c(c3ccccc3c3nc(-c4ccc(Br)cc4)[nH]c23)O1", "pIC50": 4.43},
      {"smiles": "CC1(C)CCc2c(c3ccccc3c3nc(-c4ccc(F)cc4)[nH]c23)O1", "pIC50": 4.43},
      {"smiles": "Cc1ccccc1-c1nc2c([nH]1)c1c(c3ccccc32)OC(C)(C)CC1", "pIC50": 4.43},
      {"smiles": "CC1(C)CCc2c(c3ccccc3c3nc(-c4ccccc4)[nH]c23)O1", "pIC50": 4.43}
    ]},
    {"system": "KB", "assay": "Cytotoxicity against human KB cells assessed as reduction in cell viability incubated for 48 hrs by MTT assay", "format": "functional, cell-based", "conditions": "not given", "values": [
      {"smiles": "CC1COC2=C(C1)C(=O)C(=O)c1ccccc12", "note": "(configuration not stated)", "pIC50": 6.04},
      {"smiles": "CC1(C)COC2=C(C1)C(=O)C(=O)c1ccccc12", "note": "[RHINACANTHONE]", "pIC50": 5.16}
    ]},
    {"system": "HeLa", "assay": "Cytotoxicity against human HeLa cells assessed as reduction in cell viability incubated for 48 hrs by MTT assay", "format": "functional, cell-based", "conditions": "not given", "values": [
      {"smiles": "CC1COC2=C(C1)C(=O)C(=O)c1ccccc12", "note": "(configuration not stated)", "pIC50": 6.04},
      {"smiles": "CC1(C)COC2=C(C1)C(=O)C(=O)c1ccccc12", "note": "[RHINACANTHONE]", "pIC50": 5.16}
    ]},
    {"system": "HCT-116", "assay": "Cytotoxicity against human HCT-116 cells assessed as reduction in cell viability by MTT assay", "format": "functional, cell-based", "conditions": "not given", "values": [
      {"smiles": "CC1(C)O[C@@H]2O[C@@H](COC3C4=C(OC3(C)C)c3ccccc3C(=O)C4=O)[C@H]3OC(C)(C)O[C@H]3[C@@H]2O1", "note": "(some centres not stated)", "pIC50": 6.80},
      {"smiles": "CO[C@@H]1O[C@H](COC2C3=C(OC2(C)C)c2ccccc2C(=O)C3=O)[C@H]2OC(C)(C)O[C@@H]12", "note": "(some centres not stated)", "pIC50": 6.80},
      {"smiles": "CC1(C)O[C@H]2O[C@H](COC3C4=C(OC3(C)C)c3ccccc3C(=O)C4=O)[C@@H](OCc3ccccc3)[C@H]2O1", "note": "(some centres not stated)", "pIC50": 6.80},
      {"smiles": "Cc1ccc(-c2cc(NC3C4=C(OC3(C)C)c3ccccc3C(=O)C4=O)n(-c3ccccc3)n2)cc1", "note": "(configuration not stated)", "pIC50": 6.14}
    ]},
    {"system": "HepG2", "assay": "Cytotoxicity against human HepG2 cells assessed as reduction in cell viability incubated for 48 hrs by MTT assay", "format": "functional, cell-based", "conditions": "HepG2, 48 h", "values": [
      {"smiles": "CC1COC2=C(C1)C(=O)C(=O)c1ccccc12", "note": "(configuration not stated)", "pIC50": 6.04},
      {"smiles": "CC1(C)COC2=C(C1)C(=O)C(=O)c1ccccc12", "note": "[RHINACANTHONE]", "pIC50": 5.16}
    ]},
    {"system": "HL-60", "assay": "Cytotoxicity against human HL-60 cells assessed as reduction in cell viability incubated for 72 hrs by MTT assay", "format": "functional, cell-based", "conditions": "HL-60, 72 h", "values": [
      {"smiles": "COc1ccc(-c2cn(C3C4=C(OC3(C)C)c3ccccc3C(=O)C4=O)nn2)cc1", "note": "(configuration not stated)", "pIC50": 6.03},
      {"smiles": "CC1(C)OC2=C(C(=O)C(=O)c3ccccc32)C1n1cc(-c2ccc(F)cc2)nn1", "note": "(configuration not stated)", "pIC50": 5.88},
      {"smiles": "CC1(C)OC2=C(C(=O)C(=O)c3ccccc32)C1n1cc(-c2ccc([N+](=O)[O-])cc2)nn1", "note": "(configuration not stated)", "pIC50": 6.13}
    ]},
    {"system": "HL-60", "assay": "Cytotoxicity against human HL-60 cells assessed as reduction in cell viability by MTT assay", "format": "functional, cell-based", "conditions": "not given", "values": [
      {"smiles": "CC1(C)O[C@@H]2O[C@@H](COC3C4=C(OC3(C)C)c3ccccc3C(=O)C4=O)[C@H]3OC(C)(C)O[C@H]3[C@@H]2O1", "note": "(some centres not stated)", "pIC50": 6.80},
      {"smiles": "CO[C@@H]1O[C@H](COC2C3=C(OC2(C)C)c2ccccc2C(=O)C3=O)[C@H]2OC(C)(C)O[C@@H]12", "note": "(some centres not stated)", "pIC50": 6.80},
      {"smiles": "Cc1ccc(-c2cc(NC3C4=C(OC3(C)C)c3ccccc3C(=O)C4=O)n(-c3ccccc3)n2)cc1", "note": "(configuration not stated)", "pIC50": 6.47}
    ]},
    {"system": "MOLT-4", "assay": "Cytotoxicity against human MOLT-4 cells assessed as reduction in cell viability incubated for 72 hrs by MTT assay", "format": "functional, cell-based", "conditions": "MOLT-4, 72 h", "values": [
      {"smiles": "COc1ccc(-c2cn(C3C4=C(OC3(C)C)c3ccccc3C(=O)C4=O)nn2)cc1", "note": "(configuration not stated)", "pIC50": 6.03},
      {"smiles": "CC1(C)OC2=C(C(=O)C(=O)c3ccccc32)C1n1cc(-c2ccc(F)cc2)nn1", "note": "(configuration not stated)", "pIC50": 5.88},
      {"smiles": "O=C1C(=O)c2ccccc2C2=C1CC(CI)O2", "note": "(configuration not stated)", "pIC50": 5.86},
      {"smiles": "CC1(C)OC2=C(C(=O)C(=O)c3ccccc32)C1n1cc(-c2ccc([N+](=O)[O-])cc2)nn1", "note": "(configuration not stated)", "pIC50": 6.13}
    ]},
    {"system": "Mycobacterium tuberculosis", "assay": "Antimycobacterial activity against Mycobacterium tuberculosis H37Rv ATCC 27294 assessed as bacterial growth inhibition incubated for 7 days by resazurin dye based microtiter assay", "format": "functional", "conditions": "ATCC 27294, 168 h, time 7 day", "units": {"MIC": "µg/mL"}, "values": [
      {"smiles": "Cc1ccccc1-c1nc2c([nH]1)c1c(c3ccccc32)OC(C)(C)CC1", "MIC": 1.56}
    ]},
    {"system": "Jurkat", "assay": "Cytotoxicity against human Jurkat cells assessed as reduction in cell viability incubated for 72 hrs by MTT assay", "format": "functional, cell-based", "conditions": "not given", "values": [
      {"smiles": "COc1ccc(-c2cn(C3C4=C(OC3(C)C)c3ccccc3C(=O)C4=O)nn2)cc1", "note": "(configuration not stated)", "pIC50": 6.03},
      {"smiles": "CC1(C)OC2=C(C(=O)C(=O)c3ccccc32)C1n1cc(-c2ccc(F)cc2)nn1", "note": "(configuration not stated)", "pIC50": 5.88},
      {"smiles": "O=C1C(=O)c2ccccc2C2=C1CC(CI)O2", "note": "(configuration not stated)", "pIC50": 5.86},
      {"smiles": "CC1(C)OC2=C(C(=O)C(=O)c3ccccc32)C1n1cc(-c2ccc([N+](=O)[O-])cc2)nn1", "note": "(configuration not stated)", "pIC50": 6.13}
    ]},
    {"system": "SF-295", "assay": "Cytotoxicity against human SF-295 cells assessed as reduction in cell viability by MTT assay", "format": "functional, cell-based", "conditions": "not given", "values": [
      {"smiles": "CC1(C)O[C@@H]2O[C@@H](COC3C4=C(OC3(C)C)c3ccccc3C(=O)C4=O)[C@H]3OC(C)(C)O[C@H]3[C@@H]2O1", "note": "(some centres not stated)", "pIC50": 6.80},
      {"smiles": "CO[C@@H]1O[C@H](COC2C3=C(OC2(C)C)c2ccccc2C(=O)C3=O)[C@H]2OC(C)(C)O[C@@H]12", "note": "(some centres not stated)", "pIC50": 6.80},
      {"smiles": "CC1(C)O[C@H]2O[C@H](COC3C4=C(OC3(C)C)c3ccccc3C(=O)C4=O)[C@@H](OCc3ccccc3)[C@H]2O1", "note": "(some centres not stated)", "pIC50": 6.80},
      {"smiles": "Cc1ccc(-c2cc(NC3C4=C(OC3(C)C)c3ccccc3C(=O)C4=O)n(-c3ccccc3)n2)cc1", "note": "(configuration not stated)", "pIC50": 5.98}
    ]}
  ]
}
